System: rabbit liver esterase (RLE)
Assay: Stopping of DCIPB color formation in the dual enzyme assay for Influenza A
Type: biochemical
Settings: added after five minute incubation with DCIPB; TFAP as 40 µL of 1 mM in 50 mM Tris, pH 7.5; read at 620 nm
Method: A mixture of the blocked inhibitor from Example II (1 x 10⁻⁴M) and rabbit liver esterase (RLE) (5 x 10⁻⁹M) in 50 mM diethanolamine (DEOA), pH 9.0 was added to each well (150 µL), and incubated at room temperature for 20 minutes.
A solution of DCIPB (0.35 mM in 50 mM Tris, pH 7.5, containing 20% methanol) was added to each well (150 µL). After a five minute incubation, 40 µL of a solution of 1 mM 1,1,1-trifluoroacetophenone (TFAP) in 50 mM Tris, pH 7.5, was added to stop the reaction.
The same effect was achieved by the addition of free inhibitor (product B from Example II). After "stopping," test wells having a high concentration of antigen remained colorless for several hours.

Row | SMILES | effect on color formation process
1 | O=C(c1ccccc1)C(F)(F)F [1,1,1-trifluoroacetophenone (TFAP), 1,1,1-trifluoroacetophenone] | stopped the color formation process
2 | O=C(CCc1ccc(O)cc1)C(F)(F)F [compound 3, 1,1,1-trifluoro-4-(4-hydroxyphenyl)-2-butanone] | same effect
